These results are taken from patent publication US4495101A, “Antiinflammatory 5H-tetrazolo (5,1-c)(1,4)benzodiazepine derivatives” (American Home Products Corporation, priority 1983, dated 1985).

For this experiment, the system named is carrageenan-induced paw edema. As to the kind of experiment: rat carrageenan edema test (paw volume, mercury plethysmography). It counts as in vivo, male Sprague-Dawley or Charles River rats. Conditions: 150 mg/kg oral, one hour prior to 1% carrageenan, read three hours after carrageenan, vs control, *p ≤ 0.05, **p ≤ 0.01. As for the experimental part: The anti-inflammatory activity of the claimed compounds was established by direct measurement of the effect of structurally representative compounds in the rat carrageenan edema test. This standard pharmacological procedure for determining antiinflammatory effects of a compound is performed by subcutaneous injection in the right paw of 6 animals (140-180 grams, male Sprague-Dawley or Charles River rats) with 0.1 milliliter of 1 percent carrageenan at zero time. The compounds representative of this invention are administered orally one hour prior to carrageenan at 150 milligrams per kilogram. The paw volume (edema in milliliters) is determined at zero time and three hours after carrageenan administration by mercury plethysmographic readings (milliliter) of the paw. From the change in paw volume compared to control, the percent inhibition of edema is determined. The results obtained with the compounds of Examples 1, 9, 17 and 18, which are representative of the other compounds of the invention, are as follows: […]
Consider `O=C1Nc2ccc(Cl)cc2Cn2nnnc21` [Example 1, 7-Chloro-5,10-dihydro-11H-tetrazolo[5,1-c][1,4]-benzodiazepine-11-one], for which the “% Inhibition of Edema” value was found to be 39%. Regarding `S=C1Nc2ccc(Cl)cc2Cn2nnnc21` [Example 9, 5,10-Dihydro-7-Chloro-11H-tetrazolo[5,1-c][1,4]-benzodiazepine-11-thione], the “% Inhibition of Edema” value amounted to 42%. `CN1CCN(C2=Nc3cc(Cl)ccc3Cn3nnnc32)CC1` [Example 17, 8-Chloro-11-(4-methyl-1-piperazinyl)-5H-tetrazolo[5,1-c][1,4]benzodiazepine]: the “% Inhibition of Edema” value was found to be 42%. Consider `Cc1ccc2c(c1)Cn1nnnc1C(N1CCN(C)CC1)=N2` [Example 18, 7-Methyl-11-(4-methyl-1-piperazinyl)-5H-tetrazolo[5,1-c][1,4]benzodiazepine], for which the “% Inhibition of Edema” value is recorded as 33%.
